Test [1] concerns CD8+ T cells. Description: In vitro immunogenicity of HLA-A*24 class I peptides: in vitro T-cell priming with aAPCs loaded with peptide/MHC complexes and anti-CD28 antibody, pMHC multimer readout. As to conditions: for Wells: share of positive wells in the in vitro immunogenicity experiments. Format: cell-based, human. On the procedure: In order to obtain information regarding the immunogenicity of the TUMAPs of the present invention, we performed investigations using an in vitro T-cell priming assay based on repeated stimulations of CD8+ T cells with artificial antigen presenting cells (aAPCs) loaded with peptide/MHC complexes and anti-CD28 antibody.
Isolated CD8+ lymphocytes or PBMCs were incubated until use in T-cell medium (TCM) consisting of RPMI-Glutamax (Invitrogen, Karlsruhe, Germany) supplemented with 10% heat inactivated human AB serum (PAN-Biotech, Aidenbach, Germany), 100 U/ml Penicillin/100 μg/ml Streptomycin (Cambrex, Cologne, Germany), 1 mM sodium pyruvate (CC Pro, Oberdorla, Germany), 20 μg/ml Gentamycin (Cambrex). 2.5 ng/ml IL-7 (PromoCell, Heidelberg, Germany) and 10 U/ml IL-2 (Novartis Pharma, Nurnberg, Germany) were also added to the TCM at this step. Generation of pMHC/anti-CD28 coated beads, T-cell stimulations and readout was performed in a highly defined in vitro system using four different pMHC molecules per stimulation condition and 8 different pMHC molecules per readout condition. All pMHC complexes used for aAPC loading and cytometric readout were derived from UV-induced MHC ligand exchange with minor modifications. In order to determine the amount of pMHC monomer obtained by exchange we performed streptavidin-based sandwich ELISAs according to (Rodenko et al., 2006). The purified co-stimulatory mouse IgG2a anti human CD28 Ab 9.3 (Jung et al., 1987) was chemically biotinylated using Sulfo-N-hydroxysuccinimidobiotin as recommended by the manufacturer (Perbio, Bonn, Germany). Beads used were 5.6 μm diameter streptavidin coated polystyrene particles (Bangs Laboratories, Illinois, USA).
800.000 beads/200 μl were coated in 96-well plates in the presence of 4×12.5 ng different biotin-pMHC, washed and 600 ng biotin anti-CD28 were added subsequently in a volume of 200 μl. Stimulations were initiated in 96-well plates by co-incubating 1×10^6 CD8+ T cells with 2×10^5 washed coated beads in 200 μl TCM supplemented with 5 ng/ml IL-12 (PromoCell) for 3-4 days at 37° C. Half of the medium was then exchanged by fresh TCM supplemented with 80 U/ml IL-2 and incubating was continued for 3-4 days at 37° C. This stimulation cycle was performed for a total of three times, with 12 individual wells per condition For the pMHC multimer readout using 8 different pMHC molecules per condition, a two-dimensional combinatorial coding approach was used as previously described (Andersen et al., 2012) with minor modifications encompassing coupling to 5 different fluorochromes. Finally, multimeric analyses were performed by staining the cells with Live/dead near IR dye (Invitrogen, Karlsruhe, Germany), CD8-FITC antibody clone SK1 (BD, Heidelberg, Germany) and fluorescent pMHC multimers. For analysis, a BD LSRII SORP cytometer equipped with appropriate lasers and filters was used. Peptide specific cells were calculated as percentage of total CD8+ cells. Evaluation of multimeric analysis was done using the FlowJo software (Tree Star, Oregon, USA). In vitro priming of specific multimer+ CD8+ lymphocytes was detected by comparison to irrelevant control stimulations.
Exemplary flow cytometry results after TUMAP-specific multimer staining for two peptides of the invention are shown in FIG. 4 together with corresponding negative controls.

The subject of test [2] is CD8+ T cells. Description: In vitro immunogenicity of HLA-A*02 class I peptides: in vitro T-cell priming with aAPCs loaded with peptide/MHC complexes and anti-CD28 antibody, pMHC multimer readout. In kind it is cell-based, human. As to conditions: HLA-A*02 peptides; for Donors (percentage in brackets) / Donors: healthy donors; for Donors: specific multimer+ CD8+ T-cell line after in vitro stimulation; for Wells: in vitro stimulated wells of healthy donors' CD8+ T cells, specific multimer+ readout.

[3] abbreviates: share of positive donors in the in vitro immunogenicity experiments, given as a class symbol.

For the substance “PYLDKFFAL (listed as Homo sapiens) [DOCK7-003]”, the Donors result in the test on CD8+ T cells [1] (setting [3]) is on record as “++ (20%-49 % = ++)”. Moreover, the Wells result in the test with CD8+ T cells [1] (given as a class symbol) is on record as “+ (<20% = +)”.
For “NYTSLLVTW^+4 (listed as Homo sapiens) [PTP-019]”, the Donors result with CD8+ T cells [1] (setting [3]) was “++ (20%-49 % = ++)”. Also, in the test on CD8+ T cells [1] (given as a class symbol), the Wells result was “+ (<20% = +)”.
On to “AYPRLSLSF (listed as Homo sapiens) [GAB-001]”, for which, in the test with CD8+ T cells [1] (setting [3]), the Donors result was “++ (20%-49 % = ++)”. Also, in the test with CD8+ T cells [1] (given as a class symbol), the Wells entry is recorded as “+ (<20% = +)”.
For “YYLDKSVSI (listed as Homo sapiens) [SCARA3-002]”, in that order: “++ (20%-49 % = ++)” and “+ (<20% = +)”.
The corresponding values for “KYFGGVLEYF (listed as Homo sapiens) [RHOBTB3-001]” are “++ (20%-49 % = ++)” and “+ (<20% = +)”.
For “NYNDRYDEI (listed as Homo sapiens) [RPL-001]”, in that order: “++ (20%-49 % = ++)” and “+ (<20% = +)”.
Regarding “VYLKEANAI (listed as Homo sapiens) [KIF1B-001]”, the Donors entry in the test on CD8+ T cells [1] (setting [3]) is reported as “++ (20%-49 % = ++)”. In addition, the Wells result in the test with CD8+ T cells [1] (given as a class symbol) was “+ (<20% = +)”.
For “YYTVRNFTL (listed as Homo sapiens) [PTP-014]”, in that order: “++ (20%-49 % = ++)” and “+ (<20% = +)”.
On to “PYNHQHEYF (listed as Homo sapiens) [FADS2-002]”, for which the Donors result with CD8+ T cells [1] (setting [3]) is “++++ (>70% = ++++)”. Moreover, the Wells entry with CD8+ T cells [1] (given as a class symbol) is “+ (<20% = +)”.
As to “VYNLTQEFF (listed as Homo sapiens) [SMOX-001]”, the Donors result in the test on CD8+ T cells [1] (setting [3]) is recorded as “++ (20%-49 % = ++)”. The Wells result in the test with CD8+ T cells [1] (given as a class symbol) is given as “+ (<20% = +)”.
For “FYGPQVNNI (listed as Homo sapiens) [WASL-001]”, in that order: “++++ (>70% = ++++)” and “+ (<20% = +)”.
The corresponding values for “QYQIIMTMI (listed as Homo sapiens) [FADS2-003]” are “+++ (50%-70% = +++)” and “+ (<20% = +)”.
The corresponding values for “YYHFIFTTL (listed as Homo sapiens) [GRIK3-002]” are “++++ (>70% = ++++)” and “+ (<20% = +)”.
As to “MYPYIYHVL (listed as Homo sapiens) [FAM120C-001]”, the results for the Donors in the test on CD8+ T cells [1] and in the test with CD8+ T cells [1] (setting [3]) were 100% and “++++ (>70% = ++++)”, respectively. In addition, the Wells entry in the test with CD8+ T cells [1] (given as a class symbol) is “++ (20%-49 % = ++)”.
On to “NROB1-001 (AYLKGTVLF; listed as Homo sapiens)”, for which the Donors entry in the test with CD8+ T cells [1] (setting [3]) was “++ (20%-49 % = ++)”. Further, the Wells result with CD8+ T cells [1] (given as a class symbol) is reported as “+ (<20% = +)”.
The corresponding values for “VYLTIKPLNL (listed as Homo sapiens) [EFCAB7-001]” are “++ (20%-49 % = ++)” and “+ (<20% = +)”.
On to “ALWAWPSEL (listed as Homo sapiens) [BCA-002]”, for which, in the test with CD8+ T cells [2], the “Donors (percentage in brackets)” value was 100%, the Donors result was “++++ (>70% = ++++)” and the Wells result is “++++ (>70% = ++++)”.
As for “FLVDGSWSI (listed as Homo sapiens) [COL20-001]”, in the test with CD8+ T cells [2], the Donors entry was “++ (20%-49 % = ++)” and the Wells entry is listed as “+ (<20% = +)”.
The corresponding values for “FLWSDGVPL (listed as Homo sapiens) [BCA-003]” are “++ (20%-49 % = ++)” and “+ (<20% = +)”.
Consider “GLDPSSGAIHV (listed as Homo sapiens) [PCDHGC5-001]”, for which, in the test with CD8+ T cells [2], the “Donors (percentage in brackets)” value is given as 100%, the Donors result is on record as “++++ (>70% = ++++)” and the Wells result is “+ (<20% = +)”.
Regarding “KLGDFGLATVV (listed as Homo sapiens) [DCA-001]”, in the test on CD8+ T cells [2], the Donors result is on record as “++ (20%-49 % = ++)” and the Wells result is given as “+ (<20% = +)”.
“ILIDWLVQV (listed as Homo sapiens) [CCNB1-002]”: in the test with CD8+ T cells [2], the Donors result is “+++ (50%-70% = +++)” and the Wells entry is recorded as “+ (<20% = +)”.
The corresponding values for “LTFGDVVAV (listed as Homo sapiens) [FABP7-001]” are “++++ (>70% = ++++)” and “+ (<20% = +)”.
The corresponding values for “ILFPDIIARA (listed as Homo sapiens) [MAGEF1-001]” are “++++ (>70% = ++++)” and “++ (20%-49 % = ++)”.
For “FLYNEALYSL (listed as Homo sapiens) [DPP3-001]”, in that order: “+++ (50%-70% = +++)” and “+ (<20% = +)”.
For “AMTQLLAGV (listed as Homo sapiens) [TNC-001]”, in the test on CD8+ T cells [2], the Donors result is recorded as “++ (20%-49 % = ++)” and the Wells entry is on record as “+ (<20% = +)”.
For “AVVEFLTSV (listed as Homo sapiens) [DROSHA-001]”, in that order: “++ (20%-49 % = ++)” and “+ (<20% = +)”.
For “LLLGSPAAA (listed as Homo sapiens) [SEZ6L-001]”, in that order: “++++ (>70% = ++++)” and “+ (<20% = +)”.
For the substance “YQDPHSTAV (listed as Homo sapiens) [EGFR-008]”, in the test with CD8+ T cells [2], the Donors result was “++ (20%-49 % = ++)” and the Wells result is on record as “+ (<20% = +)”.
For “KLVEFDFLGA (listed as Homo sapiens) [TACC3-001]”, in that order: “++ (20%-49 % = ++)” and “+ (<20% = +)”.
For “TLWYRAPEV (listed as Homo sapiens) [CDK4-001]”, in that order: “++++ (>70% = ++++)” and “++ (20%-49 % = ++)”.
For “KIQEILTQV (listed as Homo sapiens) [IGF2BP3-001]”, in that order: “+++ (50%-70% = +++)” and “+ (<20% = +)”.
Take “VLCGPPPAV (listed as Homo sapiens) [NC AN-001]”: in the test on CD8+ T cells [2], the “Donors (percentage in brackets)” value is 100%, the Donors result is “++++ (>70% = ++++)” and the Wells result was “+ (<20% = +)”.
For “GLSEFTEYL (listed as Homo sapiens) [MAP1B-002]”, in the test with CD8+ T cells [2], the Donors entry was “++ (20%-49 % = ++)” and the Wells entry was “+ (<20% = +)”.
For “YLPTFFLTV (listed as Homo sapiens) [ELOVL2-001]”, in that order: “++++ (>70% = ++++)” and “+ (<20% = +)”.
As to “GLPSGAPPGV (listed as Homo sapiens) [MTSS1L-001]”, in the test on CD8+ T cells [2], the “Donors (percentage in brackets)” value is reported as 100%, the Donors result is recorded as “++++ (>70% = ++++)” and the Wells result was “+++ (50%-70% = +++)”.
Take “GLMEKIKEL (listed as Homo sapiens) [CPT1C-001]”: in the test on CD8+ T cells [2], the Donors entry was “++ (20%-49 % = ++)” and the Wells result is reported as “+ (<20% = +)”.
The corresponding values for RVADYIVKV [SLC10A4-002] are “+++ (50%-70% = +++)” and “+ (<20% = +)”.
For “SLDTLMTYV (listed as Homo sapiens) [NLGN4Y-001]”, in that order: “++++ (>70% = ++++)” and “+ (<20% = +)”.
For “ALAFKLDEV (listed as Homo sapiens) [SLC10A4-001]”, in that order: “+++ (50%-70% = +++)” and “++ (20%-49 % = ++)”.
For “RLISKFDTV (listed as Homo sapiens) [EIF4E-001]”, in the test on CD8+ T cells [2], the Donors entry was “+++ (50%-70% = +++)” and the Wells entry is given as “+ (<20% = +)”.
As for “TMLARLASA (listed as Homo sapiens) [CSP-001]”, in the test with CD8+ T cells [2], the Donors entry is listed as “+++ (50%-70% = +++)” and the Wells result is on record as “+ (<20% = +)”.
With “FLYKVILSL (listed as Homo sapiens) [PTP-002]”, in the test on CD8+ T cells [2], the Donors entry is listed as “+++ (50%-70% = +++)” and the Wells result is “+ (<20% = +)”.
The corresponding values for “LLWGNAIFL (listed as Homo sapiens) [KIF1A-001]” are “+++ (50%-70% = +++)” and “++ (20%-49 % = ++)”.

The record behind these values is patent US11607446B2, “Personalized immunotherapy against several neuronal and brain tumors” (Immatics Biotechnologies GmbH, priority 2013, dated 2023).
